From article PMC2882332, “Species Used for Drug Testing Reveal Different Inhibition Susceptibility for 17beta-Hydroxysteroid Dehydrogenase Type 1” (PLoS ONE, 2010)
“Also recorded” adds a separate entry of the source. Read-outs that look alike come from different tables or passages of the source.

Legend:
porcine 17β-HSD 1 = target: T1, porcine 17β-HSD 1 (Sus scrofa, UniProt B2X0A4); test: In vitro enzymatic activity, recombinant porcine 17β-HSD 1; assay type: biochemical, pig; conditions: for inhibition at 2 µM: read-out: Observed % inhibition; for IC50: Pig 17β-HSD 1, 0.005 µM to 5 µM inhibitor
T1 sequence (B2X0A4 1-321): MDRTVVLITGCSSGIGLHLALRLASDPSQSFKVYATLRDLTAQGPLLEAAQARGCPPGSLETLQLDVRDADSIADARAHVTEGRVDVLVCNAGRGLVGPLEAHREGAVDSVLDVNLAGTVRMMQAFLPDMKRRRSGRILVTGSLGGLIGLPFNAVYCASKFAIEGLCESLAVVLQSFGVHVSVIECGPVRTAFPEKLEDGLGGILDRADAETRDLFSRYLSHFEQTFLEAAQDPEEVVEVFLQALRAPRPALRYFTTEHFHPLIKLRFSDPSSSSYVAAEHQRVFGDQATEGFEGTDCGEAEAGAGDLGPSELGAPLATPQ
Text: (§1) Full length cDNAs of several 17β-HSDs type 1 originating from different species were cloned either into the pQE30 vector (human 17β-HSD 1, coding for acc. no. NP_000404) for expression as His-Tag protein or into a modified pGex-2T vector [63] (mouse 17β-HSD 1, acc. no. NP_034605; rat 17β-HSD 1, acc. no. NP_036983; marmoset 17β-HSD 1, acc. no. AAG01115; porcine 17β-HSD 1, acc. no. NP_001121944) for expression as GST-fusion proteins. The marmoset 17β-HSD 1 enzyme sequence was updated by the missing N-terminal part (AF272013) and the new porcine sequence was submitted to GenBank (NP_001121944). Human 17β-HSDs 2, 4, 5 (AKR1C3, the latter kindly provided by Dr. T. Penning) and 7 were all cloned into the modified pGEX-2T vector. For 17β-HSD 4 only the SDR-domain converting the steroids was subcloned. Plasmids were transformed into E.coli BL21 DE3 Codon Plus RP (Stratagene) and enzyme expression was induced by 0.5 mM IPTG. After 4h incubation at 37°C with continuous shaking bacteria were pelleted by centrifugation at 10.000×g. Pellets were stored until use at −20°C.
(§2) The bacteria containing recombinant enzymes were resuspended in PBS and enzymatic assays were performed in 100 mM sodium phosphate buffer at pH 6.6 for the reductive reaction and at pH 7.7 for the oxidative reaction. […] All substrates were purchased from NEN/Perkin Elmer. The cofactors NADPH (Sigma; for reductive reactions) and NAD^+ (Serva, for oxidative reactions) were used at final concentrations of 0.5 mg/ml. […] The incubation at 37°C was stopped with 0.21 M ascorbic acid in methanol∶acetic acid 99∶1 (v∶v) after the time needed to convert approximately 30% of the substrate in a control assay with 1% DMSO, without inhibitor candidates. […] The solvent used was acetonitrile∶water (43∶57, v∶v) at a flow rate of 1 ml/min. Radioactivity was detected by online-scintillation counting (Berthold LB506D) after mixing with ReadyFlowIII (Beckman). Conversion was calculated from integration of substrate and product peaks. […] All assays were run in duplicates of two independent experiments and mean values are reported. The IC50 values were determined by the One Ligand Binding model of SigmaPlot kinetics module.

human 17β-HSD 1 = target: T2, human 17β-HSD 1 (Homo sapiens, UniProt P14061); test: In vitro enzymatic activity, recombinant human 17β-HSD 1 (estrone reduction); assay type: biochemical; conditions: for inhibition at 2 µM: human 17β-HSD 1, 2 µM compound, 15 nM 3H-estrone, NADPH, pH 6.6, read-out: Observed % inhibition; for inhibition of the human 17β-HSD 1 reductive activity (in words) / specificity for human 17β-HSD 1 over human 17β-HSD 2, 4, 5 and 7 (in words): 2 µM; for inhibition of the human 17β-HSD 1 reductive activity (in words): Figure 2; for specificity for human 17β-HSD 1 over human 17β-HSD 2, 4, 5 and 7 (in words): Figure 2, Table 3; for IC50: Human 17β-HSD 1, 0.005 µM to 5 µM inhibitor
T2 construct: Full length cDNAs of several 17β-HSDs type 1 originating from different species were cloned; made in house; host or cells: E.coli BL21 DE3 Codon Plus RP
T2 sequence (P14061 1-328): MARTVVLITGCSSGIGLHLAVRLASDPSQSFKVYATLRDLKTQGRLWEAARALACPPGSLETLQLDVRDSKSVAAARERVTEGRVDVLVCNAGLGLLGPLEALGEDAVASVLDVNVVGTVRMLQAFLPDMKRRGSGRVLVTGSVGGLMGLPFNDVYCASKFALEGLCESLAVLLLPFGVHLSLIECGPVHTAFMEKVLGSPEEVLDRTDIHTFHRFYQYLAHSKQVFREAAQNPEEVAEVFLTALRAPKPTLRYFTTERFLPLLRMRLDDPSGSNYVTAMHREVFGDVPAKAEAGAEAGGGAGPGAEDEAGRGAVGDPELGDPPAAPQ
Text: as §1, §2

marmoset 17β-HSD 1 = target: T3, marmoset 17β-HSD 1 (Callithrix jacchus, UniProt Q9GME2); test: In vitro enzymatic activity, recombinant marmoset 17β-HSD 1; assay type: biochemical; conditions: for inhibition at 2 µM: marmoset 17β-HSD 1, 2 µM compound, 15 nM 3H-estrone, read-out: Observed % inhibition
T3 sequence (Q9GME2 1-314): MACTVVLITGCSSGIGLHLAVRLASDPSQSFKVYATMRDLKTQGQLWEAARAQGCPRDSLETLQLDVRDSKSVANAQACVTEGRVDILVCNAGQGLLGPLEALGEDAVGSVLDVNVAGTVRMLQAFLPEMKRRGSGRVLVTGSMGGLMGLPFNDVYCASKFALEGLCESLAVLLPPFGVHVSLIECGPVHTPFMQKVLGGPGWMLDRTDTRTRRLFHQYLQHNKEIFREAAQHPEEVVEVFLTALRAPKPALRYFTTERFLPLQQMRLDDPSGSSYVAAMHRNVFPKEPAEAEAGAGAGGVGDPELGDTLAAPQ
Text: as §1, §2

human 17β-HSD 5 (AKR1C3) = target: T4, human 17β-HSD 5 (AKR1C3) (Homo sapiens, UniProt P42330); test: In vitro enzymatic activity, recombinant human 17β-HSD 5 (androstenedione reduction); assay type: biochemical; conditions: 2 µM compound, 21 nM 3H-androstenedione, NADPH, pH 6.6
T4 construct: made in house; host or cells: E.coli BL21 DE3 Codon Plus RP
T4 sequence (P42330 1-323): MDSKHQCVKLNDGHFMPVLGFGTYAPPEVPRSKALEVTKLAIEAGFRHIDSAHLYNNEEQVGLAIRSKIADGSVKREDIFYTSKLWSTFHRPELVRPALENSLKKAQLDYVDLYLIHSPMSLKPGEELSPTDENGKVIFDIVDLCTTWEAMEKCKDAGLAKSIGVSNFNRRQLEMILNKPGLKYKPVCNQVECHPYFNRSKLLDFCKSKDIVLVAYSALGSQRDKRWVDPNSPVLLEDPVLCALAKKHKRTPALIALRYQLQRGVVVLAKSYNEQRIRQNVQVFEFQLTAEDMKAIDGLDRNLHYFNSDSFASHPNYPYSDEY
Text: as §1, §2

[1] = pig 17β-HSD 1, 2 µM compound, 15 nM 3H-estrone

Row | Compound | inhibition at 2 µM (porcine 17β-HSD 1; [1]) [%] | inhibition at 2 µM (human 17β-HSD 1) [%] | inhibition at 2 µM (marmoset 17β-HSD 1) [%] | Observed % inhibition (human 17β-HSD 5 (AKR1C3)) [%] | IC50 (porcine 17β-HSD 1) [nM] | inhibition of the human 17β-HSD 1 reductive activity (in words) (human 17β-HSD 1) | specificity for human 17β-HSD 1 over human 17β-HSD 2, 4, 5 and 7 (in words) (human 17β-HSD 1) | IC50 (human 17β-HSD 1) [nM] | IC50 (marmoset 17β-HSD 1) [nM] | inhibition at 2 µM (porcine 17β-HSD 1) [%]
1 | C[C@]12CC[C@@H]3c4ccc(O)cc4CC[C@H]3[C@@H]1C[C@H](CC(=O)NCc1cccnc1)C2=O [Compound 5, reference compound] | 95.7 | 100 | 45.6 | 50.6 |  |  |  |  |  | 
2 | Cc1cnc(NC(=O)CC[C@@H]2CC(=O)[C@@]3(C)CC[C@@H]4c5ccc(O)cc5CC[C@H]4[C@H]23)s1 [Compound 3] | 105 | 97.9 | 98.5 | 29.3 | 0.34 | high inhibition | very low inhibition of the other human 17β-HSDs; also recorded: most specific inhibitors | 1.3 | 95.3 | 
3 | C[C@]12CC[C@@H]3c4ccc(O)cc4CC[C@H]3[C@@H]1[C@@H](CNC(=O)c1ccc(F)cc1)CC2=O [Compound 1] |  | 63.6 | 30.6 | 21.6 |  |  | most specific inhibitors |  |  | 
4 | COc1ccc(-c2cn(CCC[C@H]3CC(=O)[C@@]4(C)CC[C@@H]5c6ccc(O)cc6CC[C@H]5[C@H]34)nn2)cc1 [Compound 4] |  | 95.8 | 85.2 | 93.5 |  |  |  |  |  | 66.2
5 | C[C@]12CC[C@@H]3c4ccc(O)cc4CC[C@H]3[C@@H]1[C@@H](CCCC(=O)N1CCOCC1)CC2=O [Compound 2] | 67 | 94.7 | 60.3 | 33.9 | 457 | high inhibition | very low inhibition of the other human 17β-HSDs; also recorded: most specific inhibitors | 87.4 |  | 
